Literature values, collected in patent US7887828B2, “Dual action organic formulation to control two stages of insect pests” (ISCA Technologies, Inc., priority 2006, dated 2011).

Legend:
gypsy moth larvae [1] = system: gypsy moth larvae
gypsy moth larvae [2] = conditions: 3-day exposure; 13-day evaluation; 2nd instar larvae; treated red oak leaf disks
gypsy moth larvae [3] = conditions: 16 hours after a 2 minute crawling exposure to glass coated with a 4 mg/litre solution
[4] = system: mammalian and avian species; conditions: as indicated by DAS

Substance: spinosad
- larval populations reduced (gypsy moth larvae [1]; 3±50 mg/litre applied to run-off, ornamental style applications): 95±100%
- population reduction (gypsy moth larvae [1]; application rate of 0.75 mg/litre): large population reductions
- concentrations that effectively controlled 2nd instar larvae (gypsy moth larvae [1]; applied to foliage to run-off, laboratory potted red oak seedlings and field 4 m-tall birch trees): 3 to 50 mg/L
- LC50 (gypsy moth larvae [2]): 0.0015 mg AI/cm2
- treated larvae paralyzed (gypsy moth larvae [3]): 50%
- toxicity to mammalian and avian species [4]: little or no toxicity
